Key:
[1] = tested on: faecal egg count (parasites); assay: Nitric oxide donor and anthelmintic efficacy, time until faecal egg count rose to around 600 (Experiment 15); format: in vivo, sheep; conditions: 0.0001 g per kg liveweight oral with anthelmintic every four months
Text: In a separate experiment 20 sheep (mixed male and females) received standard anthelmintic treatments similar to experiments 3 and 4, with anthelmintics and treatments given every four months. Treatment in 10 of these animals consisted of the anthelmintic dosing and S-nitroso-N-acetylpenicillamine, a nitric oxide donor at a dose of 0.0001 g per kg liveweight in an oral form. The other 10 received the anthelmintic and a glucose control. Anthelmintic successfulness in terms of time from treatment until faecal egg count rose to around 600 as described in experiments 3 and 4 was examined. […] FIG. 22 illustrates this.

[2] = Broiler chicken trial: weight and feed conversion ratio with SAC in feed (Experiment 7); format: in vivo, broiler chickens
Text: This work aimed to investigate the effectiveness of an antistress containing composition or a stress alleviating composition (conveniently referred to as “SAC”), ([…], vitamin C and long chain amino acid mix) versus a calorie adjusted control, in lowering the physiological responses to stress and promoting growth in an intensive production systems (broiler chickens). In addition, the effect of the SAC agent in combination with existing industry feed additives (Performance enhancers: antibiotics and indigestible carbohydrates (oligosaccharides) was investigated in broiler chickens.
432 day-old male broiler chicks were used in the experiment carried out over six weeks in a poultry research unit. Chicks were assigned at random to one of 12 groups: • Group 1—Control 32° C. (n=36) • Group 2—Control 28° C. (n=36) • Group 3—Experimental Formulation A 32° C. (n=36) • Group 4—Experimental Formulation A 28° C. (n=36) • Group 5—Experimental Formulation B 28° C. (n=36) • Group 6—Experimental Formulation C 28° C. (n=36) • Group 7—Performance Enhancer 32° C. (n=36) • Group 8—Performance Enhancer 28° C. (n=36) • Group 9—Oligosaccharide 32° C. (n=36) • Group 10—Oligosaccharide 28° C. (n=36) • Group 11—Experimental Formulation A+Performance Enhancer 32° C. (n=36) • Group 12—Experimental Formulation A+Oligosaccharide 32C (n=36)
Once selected, groups of 6 birds were housed per cage in heated brooders (i.e. One treatment group (36 birds) per 6 cages). Each group had access to pelleted feed (NRM New Zealand) in excess of requirements during the trial conforming to standard poultry use Ross broiler specification), and water was freely available. During the manufacturing of the feed the following treatments were included.
SAC Agent (2-methyl-1,2-di-3-pyridyl-1-propanone, vitamin C, valine, isoleucine and leucine mixture), mixed with a glucose-based polymer carrier (0.01 g drug to 1 g of carrier) before addition to the feed in the following doses. • Formulation A (per kg feed): • 0.01 g 2-methyl-1,2-di-3-pyridyl-1-propanone • 0.1 g Vitamin C • 5 mg Valine, isoleucine and leucine • Formulation B (per kg feed): • 0.005 g 2-methyl-1,2-di-3-pyridyl-1-propanone • 0.05 g Vitamin C • 0.5 mg Valine, isoleucine and leucine • Formulation C (per kg feed): • 0.001 g 2-methyl-1,2-di-3-pyridyl-1-propanone • 0.01 g Vitamin C • 0.1 mg Valine, isolcucine and leucine • Performance Enhancers: • (Avilamycin (Surmax): Elanco Animal Health, Indianapolis, USA) • Dose: <0.2 g/kg (antibiotic concentration of 0.1 (g/ml). • Mannan oligosaccharide—indigestible carbohydrate (Bio-Mos: Alltech, Inc.USA) • Dose: 1 g/kg
Daily feed intake was recorded for each group of birds, and all birds were weighed weekly.
Birds were either kept at optimum temperature levels (32° C.) or exposed to cold stress (28° C.) from day 1 until day 14 of the trial. After 14 days they were removed to larger raised horizontal cages where all groups were maintained at 21° C. The birds remained in these cages for the remainder of the trial after which time they were slaughtered. After slaughter, meat from 6 birds per group was analysed for fat composition.

faecal count (parasites) = assay: Increase of anthelmintic effect, monthly faecal count (Experiment 10); format: in vivo, sheep; conditions: anthelmintics and agents given every four months; faecal count each month
Procedure: In a further experiment similar to that described in experiments 3 and 4 the increased anthelmintic effect from vitamin C, isoleucine, valine and leucine alone or in combination with metyrapone, and metyrapone and pyrrolopyrimidine was tested. Anthelmintics and these agents were given every four months and faecal count calculated each month in between treatments.

[3] = Dose response of metyrapone, growth promotant effects in pigs (Experiment 9); format: in vivo; conditions: oral three times over six weeks
Procedure: (§1) In four different species (sheep, poultry, pigs and rats) different dosages of the compound metyrapone alone or in combination with vitamin C, isoleucine, leucine, valine were tested for growth promotant effects.
(§2) These mixtures were administered by oral routes three times over six weeks and a control group was administered a glucose mix at the same time (calorie equivalent). Animal growth in terms of liveweight gains were measured over periods of time, as was feed consumed.

[4] = Stress relieving compounds given with anthelmintic, growth of ewes over 12 months (Experiment 13); format: in vivo, sheep; conditions: for effect on growth compared to control animals (FIG. 20): ewes treated every 2 months with anthelmintic plus agent; for effect on growth: alone or added to metyrapone
Procedure: […] A further 7 ewes received either astressin 0.0005 g or astressin and metyrapone (astressin at 0.0005 g and metyrapone at 0.001 g) and the vitamin C and amino acid mixture as above.
Bodyweight was measured monthly and animals were treated equivalently in all other aspects.

[5] = Reproductive success of ewes (Experiment 11); format: in vivo, sheep; conditions: over 3 seasons following original metyrapone treatments, vs control group
Text: Female sheep (20 ewes) chosen from original experiments in experiments 4, 5 and 6 were studied for seasonal reproductive success for up to 3 seasons following the original metyrapone treatments. These animals received no further metyrapone treatments and were kept in a flock with a similar selected group of 20 control age and weight matched counterparts that had not received metyrapone treatment.
In a separate experiment using the different sheep with no previous exposure to treatments, 20 age and bodyweight matched ewes were run as a flock. Ten of these ewes received three treatments of metyrapone and vitamin C, isoleucine, leucine and valine at a dosage of 0.001 g metyrapone/0.01 g vitamin c, 0.0005 g each of valine, isoleucine and leucine per kg liveweight in an oral form without anthelmintics. These three treatments occurred one month prior to conception, in the first and third trimester of pregnancy. The remaining ten ewes received a similar handling and control administration of a glucose-amino acid mixture.

nematode = assay: Anthelmintic efficacy (faecal egg / nematode counts) in stressed sheep given metyrapone (Experiments 3-5); format: in vivo
Text: In a first series of experiments, sheep were divided into pairs from initial twins. All the animals were grazed together, on the same paddocks, from pairing through to the end of the trial. They were thus exposed to the same potential parasite load and the same access to feed and water. The animals were also genetically similar (i.e at least one shared parent). Experiments were begun when the animal was 3 months of age. One half of the pairings were rounded up once a week and run through a race (control group). Any normal farm maintenance that was needed was done at this time, so that the time that animals may have been held was variable from week to week but consistent across the entire group and with the experimental group (see below). Faecal samples were also collected and both total egg and nematode egg counts calculated, and visual inspection for ectoparasites made. The other half of the pairings (chronic stress group) were exposed to the same handling […] (consistent with the single weekly procedure above) and in addition to this were run around a paddock by either a human or dog (alternating) for 10 minutes. In this manner a mild, chronic, handling stress was imposed on these animals. Races and handling facilities were cleaned between animal movements to avoid any risk of parasitic contamination. Animals were subject to the same anthelmintic treatments consisting of three pour-on (Ivomec pour on, MSD 1 ml per 50 kg), three oral (Endex, Novartis—1 ml per 5 kg) and three injectable treatments (levamisole. 7.5 mg/kg) per year (every four months). In a similar parallel experiment the control group was identical and the paired group to this control (acute stress) received identical treatment to the control group and in addition an acute stress one day prior to anthelmintic treatment. This consisted of chasing the group three times during the day with a dog for 15 min duration each time. The faecal egg count and ectoparasite assessment was the same in both groups at time of the first experimental anthelmintic treatment. […]

[6] = Growth rate of sheep given metyrapone with anthelmintic treatment (Experiments 3 and 6); format: in vivo; conditions: no additional stresses; metyrapone 5 mg/kg at the time of anthelmintic treatment
Text: In a first series of experiments, sheep were divided into pairs from initial twins. All the animals were grazed together, on the same paddocks, from pairing through to the end of the trial. They were thus exposed to the same potential parasite load and the same access to feed and water. The animals were also genetically similar (i.e at least one shared parent). Experiments were begun when the animal was 3 months of age. One half of the pairings were rounded up once a week and run through a race (control group). Any normal farm maintenance that was needed was done at this time, so that the time that animals may have been held was variable from week to week but consistent across the entire group and with the experimental group (see below). Faecal samples were also collected and both total egg and nematode egg counts calculated, and visual inspection for ectoparasites made. Animals were subject to the same anthelmintic treatments consisting of three pour-on (Ivomec pour on, MSD 1 ml per 50 kg), three oral (Endex, Novartis—1 ml per 5 kg) and three injectable treatments (levamisole. 7.5 mg/kg) per year (every four months). In a similar set of experiments to experiment 1, the animals in the chronic stress group also all received a chemical substance metyrapone (in an oral form at 5 mg/kg live weight) at the time of anthelmintic treatment. […]

[7] = Dose response and dose composition, growth promotant effects (Experiment 9); format: in vivo, sheep, poultry, pigs and rats; conditions: oral three times over six weeks
Procedure: as §1, §2

[8] = week 2, end of the cold stress period 28° C.
[9] = week 3, after the stressor was removed (21° C.)
[10] = week 4, after the stressor was removed (21° C.)

## CC(=O)N[C@H](C(=O)O)C(C)(C)SN=O (racemic) [S-nitroso-N-acetylpenicillamine]
[1]
  effectiveness of anthelmintic (time until faecal egg count rose to around 600): better effectiveness of anthelmintic than control animals

## COC[C@H]1O[C@@H](OC2OC[C@@H]3O[C@]4(O[C@H]3[C@H]2OC(=O)C(C)C)O[C@H](C)[C@@](O)(C(C)=O)[C@@H]2OCO[C@H]24)[C@@H](OC)[C@@H](O)[C@@H]1O[C@@H]1O[C@H](C)[C@H](OC)[C@H](O[C@H]2C[C@@]3(C)OC4(C[C@@H](O)[C@H](O[C@H]5C[C@@H](O)[C@H](OC(=O)c6c(C)c(Cl)c(O)c(Cl)c6OC)[C@@H](C)O5)[C@@H](C)O4)O[C@@H]3[C@@H](C)O2)[C@H]1O (some centres unmarked) [antibiotic performance enhancer, Avilamycin]
[2]; exposed to cold stress, during cold stress and afterwards
  rate of growth in comparison to birds given the SAC: lower rate of growth
[2]; week 1, cold stress 28° C.
  weight heavier than control birds: 3.5 g
  weight heavier than control birds, percent: 2.0%
[2]; [8]
  weight heavier than control birds: 6.3 g
  weight heavier than control birds, percent: 1.3%
[2]; [9]
  weight heavier than control birds: 42.6 g
  weight heavier than control birds, percent: 4.5%
[2]; [10]
  weight heavier than control birds: 35.2 g
  weight heavier than control birds, percent: 2.2%

## CC(C)(C(=O)c1cccnc1)c1cccnc1 [metyrapone, 2-methyl-1,2-di-3-pyridyl-1-propanone]
Faecal count (parasites)
  anthelmintic effectiveness (faecal count): more effective than with the anthelmintic alone
[3]
  % gain in production with dose: a low and a high dose were effective however a mid-range dose did not produce the same gains
[4]; 0.0001 g/kg metyrapone
  Kg of Growth in 12 months: 13 ± 3 kg
[4]; 0.0001 g/kg metyrapone + control
  Kg of Growth in 12 months: 14 ± 3 kg
[4]
  effect on growth compared to control animals (FIG. 20): larger effect
[5]
  birthweight of lambs: slightly greater than seen in the control group
nematode; acute stress group receiving metyrapone oral 5 mg/kg with anthelmintic
  differences between acute stress and control groups: no differences were seen between the acute and control groups
nematode; chronic stress group, metyrapone oral 5 mg/kg live weight at the time of anthelmintic treatment
  efficacy of anthelmintics compared with the non-stressed groups: same efficacy of anthelmintics as the non-stressed groups
nematode; one treatment including metyrapone, chronic and acute stressed animals vs control group
  time until nematode counts exceeded recommended number for dosing: no differences to the control group
[6]
  net gain, growth over the year (mean): 18 kg
[7]; all species except pigs
  % gain in production with increase in dose: an increase in gain was seen with an increase in dose of metyrapone levelling out
[7]; all species
  growth (liveweight gain): increased growth

## CC#C[C@]1(O)CC[C@H]2[C@@H]3CCC4=CC(=O)CCC4=C3[C@@H](c3ccc(N(C)C)cc3)C[C@@]21C [mifepristone]
[4]; 0.0001 g/kg mifepristone
  Kg of Growth in 12 months: 4 ± 4 kg
[4]; 0.0005 g/kg mifepristone
  Kg of Growth in 12 months: 8 ± 2 kg
[4]
  effect on growth compared to control animals (FIG. 20): small positive effect
[4]; mifepristone dose 0.0001 g/kg
  effect on growth: no effect compared to control
[4]; mifepristone dose 0.0005 g/kg
  effect on growth: small increase in growth over control treatments

## CCCN(CCC)C(=O)C(CCC(=O)O)NC(=O)c1ccccc1 (centres unmarked) [proglumide]
[4]
  effect on growth compared to control animals (FIG. 20): small positive effect

## astressin
[4]; 0.0005 g/kg astressin
  Kg of Growth in 12 months: 10 ± 4 kg
